Assay: Compound stability in rat plasma, HPLC
Type: in vitro ADME
Conditions: 37 °C
Protocol: Blood was collected from SD rats (200–250 g, male and female, Animal Experimental Center of Yanbian University) into heparin tubes, and supernatant plasma was collected after centrifugation.
A certain amount of 9a and 12a1 were accurately weighed and mixed with rat plasma. After incubation at 37 ℃ for 0, 6, 12, 24 and 36 h, the plasma samples were treated with methanol and analyzed by HPLC to determine their stability in plasma.
A HITACHI Primaide HPLC liquid chromatography system was equipped and used for all analyses. Chromatographic separation was performed on a Welch Ultimate XB-C18 column (3.9 mm × 150 mm, 5 μm; Welch, China). The analytes were eluted using a gradient method with a flow rate of 1 mL/min. Mobile phase A was Ultra pure water, and mobile phase B was methanol according to the following gradient: (1) The gradient elution conditions of 9a: 0 to 8 min, 55% to 67% B; 8.1 to 15 min, 67% to 90% B; 15.1 to 25 min, 55% B. (2) The gradient elution conditions of 12a1: 0 to 9 min, 55% to 65% B; 9.1 to 12 min, 65% to 75% B; 12.1 to 15 min, 75% to 85% B; 15.1 to 20 min, 90% B; 20.1 to 30 min, 55% B. The injection volume was 3 μL. The column temperature was set at 40 °C. […]
1.6. Plasma stability assessment
Prepare plasma:blood was collected from SD rats (200-250g, male and female, Animal Experimental Center of Yanbian University) into heparin tubes, and supernatant plasma was collected after centrifugation.
A certain amount of 9a and 12a1 were accurately weighed and mixed with rat plasma.
After incubation at 37℃ for 0 h, 6 h, 12 h, 24 h and 36 h, the plasma samples were treated with methanol and analyzed by HPLC to determine their stability in plasma.
Analytical instrument and conditions:
A HITACHI Primaide HPLC liquid chromatography system equipped was used for all analyses. Chromatographic separation was performed on a Welch Ultimate XB-C18 column (3.9 mm × 150 mm, 5 μm; Welch, China). The analytes were eluted using a gradient method with a flow rate of 1 mL/min. Mobile phase A was Ultra pure water, and mobile phase B was methanol according to the following gradient: (1). The gradient elution conditions of 9a: 0 to 8 minutes, 55% to 67% B; 8.1 to 15 minutes, 67% to 90% B; 15.1 to 25 minutes, 55% B. (2). The gradient elution conditions of […]

Decrease of HPLC peak area in rat plasma (within 36 h, UV 294 nm): ~22%
Plasma stability (in words) (rat plasma, 24 h): retained plasma stability over 24 h
Compound: COc1cc(/C(C#N)=C/c2ccc(NC(=O)CN3CCN(C)CC3)cc2)cc(OC)c1OC [12a1]

Source: PMC9963121, “Development of Combretastatin A-4 Analogues as Potential Anticancer Agents with Improved Aqueous Solubility” (Molecules, 2023)
